Results on four compounds are retold here after patent US20060222792A1, “Temozolomide storage system” (CHEMAGIS LTD., priority 2006, published 2006).

Common to all, as to assay type: physicochemical
Series [1] can be described thus: Storage stability of temozolomide in type 3 packaging, purity by HPLC (Example 3). As to conditions: for Initial purity, % by HPLC: before starting the storage period; for Initial purity, % by HPLC / Purity, % by HPLC after 1 month of storage / Purity, % by HPLC after 2 months of storage / Purity, % by HPLC after 6 month of storage: % area; for Purity, % by HPLC after 1 month of storage / Purity, % by HPLC after 2 months of storage / Purity, % by HPLC after 6 month of storage: warehouse conditions; for Purity, % by HPLC after 6 month of storage: 6 months. As for the experimental part: Analytical measurements of the temozolomide samples were performed using an HPLC system equipped with Phenomenex Synergi™ Fusion-RP C18 column, 250×4.6 mm, and a UV detector operated on 250 nm. Analyses were performed using the following mobile phase, at flow rate of 1.0 ml/minute: Mobile phase: 90% Solution A: 0.02M potassium dihydrogen phosphate buffer (pH 3); 10% Solution B: acetonitrile.
Three different samples of temozolomide were stored at warehouse conditions in a type 3 packaging. A small quantity was taken from each sample after 1, 2 and 6 months and the purity was checked by HPLC and compared to the original HPLC chromatogram of each sample (before starting the storage period). The purity of each sample was obtained as % area by the HPLC chromatogram and compared to the initial purity value (before starting the storage period).

A short description of series [2]: Colour stability of temozolomide in different drug packaging at warehouse conditions (Example 2). From the text: Exemplary packaging, which can be used in the storage system of the present invention, can include, e.g., packaging type 1, packaging type 2 and/or packaging type 3. When packaging type 1 is used, the temozolomide is preferably contained (e.g., packed or packaged) in a sealed transparent polymeric bag (e.g., a sealed polyethylene bag). When packaging type 2 is used, the temozolomide is preferably contained (e.g., packed or packaged) in a sealed transparent polymeric bag (e.g., a sealed polyethylene bag), which is inserted into another opaque (e.g., black) polymeric bag (e.g., a black polyethylene bag), which is then sealed effectively to prevent penetration of humidity, oxygen and/or light. When packaging type 3 is used, the temozolomide is preferably contained (e.g., packaged or packed) in a sealed transparent polymeric bag (e.g., a sealed polyethylene bag), which is inserted in an opaque (e.g., black) polymeric bag (e.g., a black polyethylene bag), which is then sealed and, in turn, put inside a sealed laminated aluminum bag, which is then sealed. For packaging type 2 and packaging type 3, a desiccant can be interposed (e.g., dispersed) between the two plastic layers (e.g., between the transparent and opaque polymeric bags).
Exemplary packaging for the storage system of the present invention can include packaging type 1, wherein temozolomide is packed and sealed in a transparent polyethylene bag. Exemplary packaging for the storage system of the present invention also can include packaging type 2, wherein temozolomide is packed and sealed in a transparent polyethylene bag, which is inserted into an opaque (e.g., black) polyethylene bag, which is then sealed, wherein the packaging is sealed effectively to prevent penetration of humidity and/or oxygen. Exemplary packaging for the storage system of the present invention also can include packaging type 3, wherein temozolomide is packed and sealed in a transparent polyethylene bag, which is packed in an opaque (e.g., black) polyethylene bag, which is then sealed and, in turn, packed and sealed in a laminated aluminum bag, which is then sealed. In packaging type 2 and in packaging type 3, a desiccant optionally can be interposed (e.g., dispersed) between the two polymeric bags/layers. In accordance with the present invention, each packaging, e.g., packaging type 1, type 2, and/or type 3 as described herein, can be packed under an inert atmosphere (e.g., under a nitrogen atmosphere) or in ambient air. In a preferred embodiment, the storage system of the present invention includes a type 3 packaging with a silica gel desiccant, wherein the packaging is optionally packed and sealed under a nitrogen atmosphere. An exemplary type 3 packaging is described in Example 2, which describes a type 3 packaging containing a silica gel desiccant, optionally under nitrogen atmosphere, which is effective in maintaining the temozolomide white color for long storage periods. […]

Series [3] in a line: Effect of relative humidity on temozolomide stability, visual colour test in open glass vessel (Example 4). The protocol: Three samples of temozolomide were stored in an open glass vessel at different relative humidity (RH) conditions for storage periods of up to 3 weeks, after which time the color changes were evaluated.

Turning to `Cn1nnc2c(C(N)=O)ncn2c1=O` [Sample 3034, temozolomide], the “Initial purity, % by HPLC” value in series [1] stood at 99.8%. Also, in series [1] (type 3 packaging), the “Purity, % by HPLC after 1 month of storage” value is listed as 99.7%; the “Purity, % by HPLC after 2 months of storage” value is reported as 99.8%; the “Purity, % by HPLC after 6 month of storage” value is on record as 99.8%.

With `Cn1nnc2c(C(N)=O)ncn2c1=O` [Sample 519, temozolomide], the “Initial purity, % by HPLC” value in series [1] came to 97.9%. Also, in series [1] (type 3 packaging), the “Purity, % by HPLC after 1 month of storage” value was 97.3%; the “Purity, % by HPLC after 2 months of storage” value stood at 97.3%; the “Purity, % by HPLC after 6 month of storage” value worked out at 96.2%. The “Rate of decomposition on storage” value in series [1] (type 3 packaging, wet sample (water about 1.8%) vs dry samples 3417 and 3034 (water less than 0.1%, KF)) was “appeared to decompose at a faster rate than the dry samples”.

For the compound `Cn1nnc2c(C(N)=O)ncn2c1=O` [Sample 3417, temozolomide], in series [1], the “Initial purity, % by HPLC” value turned out to be 99.7%. In series [1] (type 3 packaging), the “Purity, % by HPLC after 1 month of storage” value is 99.8%; the “Purity, % by HPLC after 2 months of storage” value is on record as 99.9%; the “Purity, % by HPLC after 6 month of storage” value was 99.7%.

In the case of `Cn1nnc2c(C(N)=O)ncn2c1=O` [temozolomide, 8-carbamoyl-3-methyl-imidazo[5,1-d]-1,2,3,5-tetrazin-4(3H)-one], the Color entry in series [2] (Type 1 at ambient air, storage period 6 weeks, warehouse conditions, initially white) is “pinkish”; in series [2] (Type 3 - the inner bag of entry 2 was left out (sealed) for two more weeks, 6 weeks), “pinkish”; in series [2] (Type 3 at ambient air containing a desiccant in the inner packaging, 4 weeks, warehouse conditions), “white”; in series [2] (Type 3 at ambient air containing a desiccant in the inner packaging, 10 weeks, warehouse conditions), “white”; in series [2] (Type 3 under nitrogen containing a desiccant in the inner packaging, 6 weeks, warehouse conditions), “white”; in series [2] (Type 3 under nitrogen without desiccant in the inner packaging, 8 weeks, warehouse conditions), “pinkish”. The “Result of visual test” value is recorded as “White” in series [3] (RH 20%, 3 weeks) and “pink color” in series [3] (RH 80%, 4 days).
